Measurements published in PMC9705314, “Characterization of a new potent and long-lasting single chain peptide agonist of RXFP1 in cells and in vivo translational models” (Scientific Reports, 2022).

Tests used:
RXFP1 [1] = target: T1, RXFP1 (Rattus norvegicus, UniProt Q6R6I6); assay: Telemetry (heart rate) in conscious SD rats; format: in vivo; conditions: conscious telemetered SD rats, single iv relaxin 1, 3 and 10 µg/kg, n = 5/group
T1 construct: measured in conscious telemetered SD rats; tissue Charles River Laboratories; host or cells: whole animal, male Sprague Dawley rats (heart; renal vasculature)
T1 sequence (Q6R6I6 1-758): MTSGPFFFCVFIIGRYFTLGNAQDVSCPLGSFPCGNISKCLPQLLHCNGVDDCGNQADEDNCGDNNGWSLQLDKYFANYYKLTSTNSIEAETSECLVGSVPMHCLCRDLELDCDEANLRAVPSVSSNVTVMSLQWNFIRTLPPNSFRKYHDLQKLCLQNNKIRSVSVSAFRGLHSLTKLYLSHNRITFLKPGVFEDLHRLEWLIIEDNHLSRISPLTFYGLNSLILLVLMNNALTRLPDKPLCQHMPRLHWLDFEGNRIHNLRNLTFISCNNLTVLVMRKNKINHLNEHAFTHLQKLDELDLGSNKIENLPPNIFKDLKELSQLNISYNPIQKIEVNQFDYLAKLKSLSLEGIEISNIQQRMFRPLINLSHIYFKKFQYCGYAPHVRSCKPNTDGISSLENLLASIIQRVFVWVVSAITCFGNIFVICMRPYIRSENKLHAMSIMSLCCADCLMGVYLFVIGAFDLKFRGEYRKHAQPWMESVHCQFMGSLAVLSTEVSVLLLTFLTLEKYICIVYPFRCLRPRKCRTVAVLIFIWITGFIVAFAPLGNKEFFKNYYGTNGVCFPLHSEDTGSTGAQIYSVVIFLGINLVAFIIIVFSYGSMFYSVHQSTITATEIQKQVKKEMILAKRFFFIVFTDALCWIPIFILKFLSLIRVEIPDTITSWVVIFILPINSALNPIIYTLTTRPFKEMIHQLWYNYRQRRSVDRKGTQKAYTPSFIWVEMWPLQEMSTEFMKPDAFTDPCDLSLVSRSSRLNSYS

RXFP1 [2] = target: T2, RXFP1 (Homo sapiens, UniProt Q9HBX9); assay: xCELLigence real time impedance in EA.hy926_RXFP1 cells; format: cell-based; design: expressed in transfected cells; host or cells: EA.hy926 (ATCC CRL-2922), lentiviral transduction, puromycin selection; conditions: 10 nM, over 10 h
T2 sequence (Q9HBX9 1-757): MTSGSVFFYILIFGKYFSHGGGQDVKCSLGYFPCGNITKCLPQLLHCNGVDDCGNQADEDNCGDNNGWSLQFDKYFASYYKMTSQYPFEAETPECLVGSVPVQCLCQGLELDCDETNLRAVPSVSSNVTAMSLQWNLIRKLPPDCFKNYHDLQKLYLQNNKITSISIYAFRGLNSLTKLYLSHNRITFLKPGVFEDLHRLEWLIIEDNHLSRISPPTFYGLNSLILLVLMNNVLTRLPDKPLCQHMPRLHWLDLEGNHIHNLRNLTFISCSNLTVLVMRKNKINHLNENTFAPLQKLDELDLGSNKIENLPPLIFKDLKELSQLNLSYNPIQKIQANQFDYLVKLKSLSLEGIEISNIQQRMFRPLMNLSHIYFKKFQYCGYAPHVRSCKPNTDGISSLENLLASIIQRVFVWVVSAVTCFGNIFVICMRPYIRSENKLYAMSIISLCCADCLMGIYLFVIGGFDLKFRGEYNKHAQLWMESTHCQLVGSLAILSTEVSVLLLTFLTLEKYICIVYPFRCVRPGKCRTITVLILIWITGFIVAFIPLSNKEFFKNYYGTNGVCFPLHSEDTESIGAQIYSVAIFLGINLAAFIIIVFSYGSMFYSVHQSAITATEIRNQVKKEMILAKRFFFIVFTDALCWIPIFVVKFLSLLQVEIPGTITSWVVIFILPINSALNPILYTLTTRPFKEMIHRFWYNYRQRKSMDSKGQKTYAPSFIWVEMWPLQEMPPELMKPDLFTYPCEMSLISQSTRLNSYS
Description: Cell impedance assays in both wild type EA.hy926 and EA.hy926_RXFP1 cell lines were performed using a MP RCTA xCELLigence Analyzer (ACEA Biosciences) on E-Plates. 20,000 cells/well were seeded in E-plates in 200 µL of growth medium and left to settle for 30 min at room temperature. Plates were then placed into the xCELLigence RTCA MP Instrument under 5% CO2 at 37 °C and impedance was continuously measured every 15 min overnight. The next day, a 4-h serum starvation was performed using the same medium but with 0.1% FCS (impedance measurement every 5 min).
Data analysis was performed using RTCA2.0 software according to ACEA recommendations. Raw impedance expressed as cell index was normalized for each well by dividing individual Cell Index values by baseline Cell index values obtained 5 min before peptide treatment in order to obtain Normalized Cell Index (NCI): mean NCI from 4 replicates for each condition are presented.

relaxin
duration of the heart rate effect (RXFP1 [1]): 4 to 6 h
kinetics and shape of the RXFP1 activation signal (impedance) (RXFP1 [2]): superimposable responses
